Measured values published in patent publication US20260049055A1, “SOLID FORMS OF […] […] USES THEREOF” (Sensorium Therapeutics, Inc., priority 2022, published 2026).

Key:
[1] = target: sodium-dependent serotonin transporter (SERT) (Homo sapiens, UniProt P31645); conditions: reported for naturally occurring material from Sceletium tortuosum; cited from earlier work
Sequence of sodium-dependent serotonin transporter (SERT) (P31645 whole entry, species assumed): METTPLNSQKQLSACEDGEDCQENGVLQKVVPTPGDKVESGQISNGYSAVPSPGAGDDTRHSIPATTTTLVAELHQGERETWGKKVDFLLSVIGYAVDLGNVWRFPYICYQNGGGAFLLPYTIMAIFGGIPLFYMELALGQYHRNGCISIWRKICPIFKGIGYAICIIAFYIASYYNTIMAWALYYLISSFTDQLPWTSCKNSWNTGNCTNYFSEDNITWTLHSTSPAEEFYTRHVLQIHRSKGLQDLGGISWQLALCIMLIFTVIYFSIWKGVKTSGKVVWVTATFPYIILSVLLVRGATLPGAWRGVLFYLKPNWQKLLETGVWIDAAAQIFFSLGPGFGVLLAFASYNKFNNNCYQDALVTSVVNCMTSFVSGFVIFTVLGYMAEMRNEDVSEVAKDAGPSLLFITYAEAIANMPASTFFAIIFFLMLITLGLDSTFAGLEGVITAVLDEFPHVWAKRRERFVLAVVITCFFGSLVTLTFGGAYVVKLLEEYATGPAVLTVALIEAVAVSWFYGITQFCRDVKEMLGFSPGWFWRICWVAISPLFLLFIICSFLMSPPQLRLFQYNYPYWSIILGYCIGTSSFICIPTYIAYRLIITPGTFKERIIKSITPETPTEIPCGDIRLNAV

[2] = Solubility of Freeform Form A in solvents; assay type: physicochemical
Text: Freeform Form A was a gum material. The material had the solubility shown below:

| Compound | serotonin (5-HT) uptake inhibition, in words [1] | Solubility (mg/mL) ([2]; solvent 1,4-Dioxane) | Solubility (mg/mL) ([2]; solvent 2-MeTHF) | Solubility (mg/mL) ([2]; solvent ACN) | Solubility (mg/mL) ([2]; solvent Acetone) | Solubility (mg/mL) ([2]; solvent CPME) | Solubility (mg/mL) ([2]; solvent DCM) | Solubility (mg/mL) ([2]; solvent EtOH) | Solubility (mg/mL) ([2]; solvent H2O) | Solubility (mg/mL) ([2]; solvent IPA) | Solubility (mg/mL) ([2]; solvent IPAc) | Solubility (mg/mL) ([2]; solvent MIBK) | Solubility (mg/mL) ([2]; solvent MTBE) | Solubility (mg/mL) ([2]; solvent MeOH) | Solubility (mg/mL) ([2]; solvent THF) |
| --- | --- | --- | --- | --- | --- | --- | --- | --- | --- | --- | --- | --- | --- | --- | --- |
| COc1ccc([C@@]23CCC(=O)C[C@@H]2N(C)CC3)cc1OC [Compound 1, (3aS,7aS)-3a-(3,4-dimethoxyphenyl)-1-methyl-2,3,4,5,7,7a-hexahydroindol-6-one] | serotonin (5-HT) uptake inhibitory activity |  |  |  |  |  |  |  |  |  |  |  |  |  |  |
| COc1ccc([C@@]23CCC(=O)C[C@@H]2N(C)CC3)cc1OC [Freeform Form A, (3aS,7aS)-3a-(3,4-dimethoxyphenyl)-1-methyl-2,3,4,5,7,7a-hexahydroindol-6-one] |  | S > 40.0 mg/mL | S > 40.0 mg/mL | S > 44.0 mg/mL | S > 40.0 mg/mL | S > 40.0 mg/mL | S > 42.0 mg/mL | S > 42.0 mg/mL | S > 42.0 mg/mL | S > 38.0 mg/mL | S > 36.0 mg/mL | S > 38.0 mg/mL | S > 40.0 mg/mL | S > 36.0 mg/mL | S > 44.0 mg/mL |
